Results on six compounds are retold here after patent US11224561B2, “Skin cleansing composition” (KAO CORPORATION, priority 2017, dated 2022).

The conditions of data set [1]: at 25° C.; cited from earlier work.
Data set [2] in a line: Detergency against keratotic plug during cleansing: collapse state of keratotic plugs. The note with it: samples of Table 1, contact for 1 minute. On the set-up: species or system human. The procedure: Keratotic plugs in the nasal region were removed with “Biore Nose Pack (manufactured by Kao Corporation)”, the resulting keratotic plugs on the pack were gently taken out with tweezers.
The resulting keratotic plugs were placed on a slide glass and were covered with a cover glass, and 0.05 mL of a sample was dropwise added to an edge of the cover glass. Consequently, the sample entered into the gap between the slide glass and the cover glass by capillary phenomenon and was brought into contact with the keratotic plugs. The contact of the keratotic plugs and the sample was recorded with a digital microscope (VHX-5000, manufactured by Keyence Corporation, magnification: 150×), and the penetration of the sample into the keratotic plugs and the collapse state of the keratotic plugs were evaluated after one minute from the contact of the keratotic plugs with the sample. The results of each evaluation are shown in the columns “Keratotic plug detergency (penetration)” and “Keratotic plug detergency (during cleansing)” in Tables. The measurements were performed at 25° C.
The penetration was relatively evaluated by criteria with 11 ratings from the rating 1 “the sample hardly penetrated into the keratotic plug” to the rating 11 “the sample penetrated to the center of the keratotic plug”. The collapsibility by the detergency against keratotic plug was relatively evaluated by criteria with 11 ratings from the rating 1 “almost no change is observed in the external appearance of the keratotic plug” to the rating 11 “peeling or separation is observed in the area from the surface layer to the central portion of the keratotic plug (the initial appearance of the keratotic plug is not retained)”.

The nature of data set [3]: Detergency against keratotic plug during cleansing: penetration of the sample into keratotic plugs. Also on record: species or system human. The conditions noted are these: samples of Table 1, contact for 1 minute. The procedure: Keratotic plugs in the nasal region were removed with “Biore Nose Pack (manufactured by Kao Corporation)”, the resulting keratotic plugs on the pack were gently taken out with tweezers. […] Consequently, the sample entered into the gap between the slide glass and the cover glass by capillary phenomenon and was brought into contact with the keratotic plugs. The contact of the keratotic plugs and the sample was recorded with a digital microscope (VHX-5000, manufactured by Keyence Corporation, magnification: 150×), and the penetration of the sample into the keratotic plugs and the collapse state of the keratotic plugs were evaluated after one minute from the contact of the keratotic plugs with the sample. The results of each evaluation are shown in the columns “Keratotic plug detergency (penetration)” and “Keratotic plug detergency (during cleansing)” in Tables. The measurements were performed at 25° C. The penetration was relatively evaluated by criteria with 11 ratings from the rating 1 “the sample hardly penetrated into the keratotic plug” to the rating 11 “the sample penetrated to the center of the keratotic plug”. The collapsibility by the detergency against keratotic plug was relatively evaluated by criteria with 11 ratings from the rating 1 “almost no change is observed in the external appearance of the keratotic plug” to the rating 11 “peeling or separation is observed in the area from the surface layer to the central portion of the keratotic plug (the initial appearance of the keratotic plug is not retained)”.

A short description of data set [4]: Detergency against keratotic plug after washing with water: collapse state. The conditions noted are these: samples of Table 1, washing with water. Also on record: species or system human. The text has this:
The penetration was relatively evaluated by criteria with 11 ratings from the rating 1 “the sample hardly penetrated into the keratotic plug” to the rating 11 “the sample penetrated to the center of the keratotic plug”. The collapsibility by the detergency against keratotic plug was relatively evaluated by criteria with 11 ratings from the rating 1 “almost no change is observed in the external appearance of the keratotic plug” to the rating 11 “peeling or separation is observed in the area from the surface layer to the central portion of the keratotic plug (the initial appearance of the keratotic plug is not retained)”. After one minute from the contact of the keratotic plugs with the sample, Kimwipes (registered trademark) was brought into contact with an edge of the cover glass to remove the sample under the cover glass. […] The results of the evaluation are shown in the column “Keratotic plug detergency (during washing with water)” in Table. The measurements were performed at 25° C.

In data set [5] the test system is insoluble protein (seine protein). The data set is described as follows: Effect of suppressing protein aggregation (precipitation of insoluble protein). The conditions noted are these: sample of Table 1. The procedure: Thirty milliliters of a sample and 0.06 g of an insoluble protein (seine protein) were placed in a 35-mL standard glass bottle, and the concentration of the insoluble protein was adjusted to 0.2 mass % (test sample). Separately, a standard sample was prepared by using water instead of the sample and adjusting the concentration of the insoluble protein to 0.2 mass %. Subsequently, the standard glass bottles were sufficiently shaken and stirred up and down (shake width: 15 cm, 20 times at a rate of 5 times for 3 seconds) in a thermostatic chamber of 25° C. and were left to stand for 3 minutes. The precipitation state of the insoluble protein was then visually verified, and the ratio of the amount of the precipitated standard sample to the amount of the precipitated test sample (the height of the precipitate in each standard glass bottle was measured as the precipitation amount), (precipitation amount of standard sample)/(precipitation amount of test sample), was calculated. A higher ratio indicates a higher effect of suppressing protein aggregation.

With `CC(C)(N)CO` [Component (X3)], in data set [1], the pKa is on record as 9.72.
As for `O=P([O-])([O-])O.[Na+].[Na+]` [disodium hydrogen phosphate], the “collapse of keratotic plugs in contact with the sample (in words)” value (shortened to “collapse of keratotic plugs in contact”) in data set [2] is “the collapse of the keratotic plugs did not progress”. Besides, the “penetration of the sample into keratotic plugs (in words)” value (from here on “penetration”) in data set [3] is recorded as “hardly penetrated into keratotic plugs”. Besides, in data set [4], the “swelling of sample-treated keratotic plugs on contact with water (in words)” value (from here on “swelling”) was “did not swell even when contacted with water”.
For the compound `O=C([O-])O.[Na+]` [sodium hydrogen carbonate], the “collapse of keratotic plugs in contact” value in data set [2] is on record as “the collapse of the keratotic plugs did not progress”. In addition, the “penetration” value in data set [3] is given as “hardly penetrated into keratotic plugs”. Also, in data set [4], the “swelling” value was “did not swell even when contacted with water”.
“sodium polyoxyethylene (2) lauryl ether sulfate [POE (2) sodium lauryl sulfate]”: the “action on proteins (in words)” value in data set [5] was “the action on proteins was strong to dissolve the proteins”. In addition, the “collapse of keratotic plugs in contact” value in data set [2] is “the collapse of the keratotic plugs did not progress”. Moreover, the “penetration” value in data set [3] was “hardly penetrated into the keratotic plugs”.
Regarding `CC(N)(CO)CO` [AMPD, 2-amino-2-methyl-1,3-propanediol], in data set [3], the “penetration” value is reported as “penetrated into keratotic plugs”. Moreover, the “swelling” value in data set [4] was “swelled when contacted with water”.
With `O=P([O-])([O-])[O-].[Na+].[Na+].[Na+]` [trisodium phosphate], in data set [2], the “collapse of keratotic plugs in contact” value is given as “the collapse of the keratotic plugs did not progress”. Moreover, the “penetration” value in data set [3] is “hardly penetrated into keratotic plugs”. Further, the “swelling” value in data set [4] was “did not swell even when contacted with water”.
